Source: the NIST ThermoML archive (doi:10.1021/je400243j)
Numbers after ± are expanded uncertainties.

Details: 293.15 K, 101.33 kPa, Liquid; for viscosity: Concentric cylinders viscometry; for mass density: Vibrating tube method

Work on CCCCn1cc[n+](CCCS(=O)(=O)O)c1.O=S(=O)([O-])O [1-butyl-3-(3-sulfopropyl)-imidazolium hydrogensulfate] yielded a viscosity of 1000 ± 100 mPa·s and a mass density of 1346.9 ± 0.8 kg/m3.
In the case of CCCCn1cc[n+](CCCCS(=O)(=O)O)c1.O=S(=O)([O-])O [1-butyl-3-(4-sulfobutyl)-imidazolium hydrogensulfate], the viscosity is reported as 1592 ± 210 mPa·s and the mass density is reported as 1361.1 ± 0.8 kg/m3.
For C[n+]1ccn(CCCCS(=O)(=O)O)c1.O=S(=O)([O-])O [1-methyl-3-(4-sulfobutyl)-imidazolium hydrogensulfate], the viscosity was 1427 ± 180 mPa·s and the mass density was 1464.7 ± 0.8 kg/m3.
Molecule C[n+]1ccn(CCCS(=O)(=O)O)c1.O=S(=O)([O-])O [1-methyl-3-(3-sulfopropyl)-imidazolium hydrogensulfate] has a viscosity of 1296 ± 150 mPa·s and a mass density of 1501.7 ± 0.9 kg/m3.
